Measured values published in patent US20240083910A1, “AMIDO-SUBSTITUTED PYRIDYL COMPOUNDS AND METHODS OF USE THEREOF FOR THE TREATMENT OF HERPESVIRUSES” (Merck Sharp & Dohme LLC, priority 2020, published 2024).
Where two headings read alike, the source gives them in different places.

Columns and labels:
HCMV Strain AD169 = assay: Viral qPCR assay, HCMV; assay type: cell-based, Human cytomegalovirus; conditions: MRC-5 cells, 0.05-0.1 pfu/cell, growth media or 50% fetal bovine serum, viral genome copies by qPCR, read-out: CMV Cell (EC50)
Method: (§1) MRC5 cells, Vero cells, and MeWo cells were obtained from ATCC, and were maintained at 37° C./5% CO2/90% relative humidity in Minimal Essential Medium with 10% fetal bovine serum, […] L-glutamine, 100 units/ml penicillin and 100 ug/ml streptomycin. Assay plates were prepared by dispensing compounds dissolved in DMSO into wells of 384 well collagen-coated plates using an ECHO acoustic dispenser. Each compound was tested in a 10-point, serial 3-fold dilution. Controls included uninfected cells and infected cells treated only with DMSO. Assays were initiated by mixing selected cells, in suspension, with virus, and dispensing 50 μl/well infected cells to pre-plated compounds. Plates were incubated at 37° C./5% CO2/90% relative humidity for ˜72 hrs to permit genomic replication, and infected cells were lysed by the addition of an equal volume of lysis buffer (10 mM Tris-HCl, pH8, 50 mM KCl, 2 mM MgCl2, 0.45% NP-40, 0.45% Tween-20, and 100 μg/ml proteinase K). An aliquot of the lysate was transferred to a 384-well PCR plate and incubated at 56° C. for 1 hour and then at 95° C. for 10 min. Levels of a viral gene and of the cellular control, PPIA (Thermo Fisher Assay ID=Hs04194521_s1), were measured in separate 10 ul qPCR assays using TaqMan® Gene Expression Master Mix (Applied Biosystems), and an 7900HT Fast Real-Time PCR System with 384-Well Block Module. 7-point, serial 10-fold dilutions of a plasmid standard were run on each plate to generate a standard curve, and genome copies numbers were calculated by plotting experimental Ct onto linear regression of the standard curve. Viral genome copy numbers were normalized by cellular control copy number, and compound effects were normalized to the window defined by the controls. Calculated % effects were fit using a 4-parameter algorithm, and EC50 was reported.
(§2) MRC5 cells, Vero cells, and MeWo cells were obtained from ATCC, and were maintained at 37° C./5% CO2/90% relative humidity in Minimal Essential Medium with 10% fetal bovine serum, […] L-glutamine, 100 units/ml penicillin and 100 ug/ml streptomycin. Assay plates were prepared by dispensing compounds dissolved in DMSO into wells of 384 well collagen-coated plates using an ECHO acoustic dispenser. Each compound was tested in a 10-point, serial 3-fold dilution. Controls included uninfected cells and infected cells treated only with DMSO. Assays were initiated by mixing selected cells, in suspension, with virus, and dispensing 50 μl/well infected cells to pre-plated compounds. Plates were incubated at 37° C./5% CO2/90% relative humidity for ˜72 hrs to permit genomic replication, and infected cells were lysed by the addition of an equal volume of lysis buffer (10 mM Tris-HCl, pH 8, 50 mM KCl, 2 mM MgC12, 0.45% NP-40, 0.45% Tween-20, and 100 μg/ml proteinase K). An aliquot of the lysate was transferred to a 384-well PCR plate and incubated at 56° C. for 1 hour and then at 95° C. for 10 min. Levels of a viral gene were measured in 10 ul qPCR assays using TaqMan® Gene Expression Master Mix (Applied Biosystems), and an 7900HT Fast Real-Time PCR System with 384-Well Block Module. 7-point, serial 10-fold dilutions of a plasmid standard were run on each plate to generate a standard curve, and genome copies numbers were calculated by plotting experimental Ct onto linear regression of the standard curve. Compound effects on viral genome copy number were normalized to the window defined by the controls. Calculated % effects were fit using a 4-parameter algorithm, and ECso was reported.
HCMV: Strain AD169 Street was assayed in MRC-5 cells and was used at 0.05-0.1 pfu/cell. The assays were performed in either growth media or in the same media with 50% fetal bovine serum. Primer-probe set was Thermo Fisher Assay ID=AIFATFK.

HSV-1 Strain F = assay: Viral qPCR assay, HSV-1; assay type: cell-based, Herpes Simplex Virus type 1; conditions: Vero or MRC5 cells, 0.0005-0.004 pfu/cell, growth medium, viral genome copies by qPCR, read-out: HSV1 Cell (EC50)
Method: as §1, §2
HSV-1: Strain F […] was assayed in Vero or MRC5 cells and was used at 0.0005-0.004 pfu/cell in growth medium. Primer-probe set was Thermo Fisher Assay ID=AIBJZIB

[1] = target: T1, Human cytomegalovirus DNA polymerase (Human cytomegalovirus, UniProt P08546); assay: CMV polymerase assay (AlphaLISA); assay type: biochemical; conditions: HCMV polymerase 0.2 nM, 30 min pre-incubation, 60 min at 37° C.
T1 construct: made in house; host or cells: SF21 insect cells (baculovirus vector)
T1 sequence (P08546 whole entry): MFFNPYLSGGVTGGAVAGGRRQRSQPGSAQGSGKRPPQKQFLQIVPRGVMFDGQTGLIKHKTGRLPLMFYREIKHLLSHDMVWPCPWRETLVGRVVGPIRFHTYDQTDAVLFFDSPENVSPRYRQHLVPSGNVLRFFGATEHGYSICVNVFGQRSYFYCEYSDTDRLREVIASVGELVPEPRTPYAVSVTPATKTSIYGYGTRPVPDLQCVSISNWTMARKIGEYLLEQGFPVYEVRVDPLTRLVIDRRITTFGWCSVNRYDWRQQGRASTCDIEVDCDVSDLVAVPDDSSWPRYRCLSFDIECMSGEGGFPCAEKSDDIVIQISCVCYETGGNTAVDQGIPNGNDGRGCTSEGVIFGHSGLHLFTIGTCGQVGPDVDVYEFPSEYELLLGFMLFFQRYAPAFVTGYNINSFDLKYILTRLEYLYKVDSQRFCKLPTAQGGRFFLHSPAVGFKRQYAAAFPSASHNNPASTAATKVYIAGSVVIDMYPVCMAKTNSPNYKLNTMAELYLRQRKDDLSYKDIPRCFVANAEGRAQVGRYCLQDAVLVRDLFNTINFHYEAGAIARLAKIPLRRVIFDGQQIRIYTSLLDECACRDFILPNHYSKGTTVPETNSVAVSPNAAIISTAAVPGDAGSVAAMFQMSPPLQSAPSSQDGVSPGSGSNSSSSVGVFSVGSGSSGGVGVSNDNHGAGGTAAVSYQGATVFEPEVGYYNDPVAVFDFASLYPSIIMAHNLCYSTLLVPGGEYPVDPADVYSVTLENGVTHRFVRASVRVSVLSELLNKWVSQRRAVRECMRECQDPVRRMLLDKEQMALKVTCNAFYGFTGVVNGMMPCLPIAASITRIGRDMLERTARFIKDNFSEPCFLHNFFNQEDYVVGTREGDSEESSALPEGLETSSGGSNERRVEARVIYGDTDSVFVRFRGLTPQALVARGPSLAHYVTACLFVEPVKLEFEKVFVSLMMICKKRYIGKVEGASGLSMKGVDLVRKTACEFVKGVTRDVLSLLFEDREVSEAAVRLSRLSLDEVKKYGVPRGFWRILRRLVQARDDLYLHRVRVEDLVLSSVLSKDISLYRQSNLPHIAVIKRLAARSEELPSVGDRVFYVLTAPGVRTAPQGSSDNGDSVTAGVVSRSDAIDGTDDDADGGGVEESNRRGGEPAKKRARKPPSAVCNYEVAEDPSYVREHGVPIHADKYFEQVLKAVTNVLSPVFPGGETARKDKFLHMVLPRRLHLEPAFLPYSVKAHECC
Method: Human cytomegalovirus and varicella zoster virus DNA polymerases were expressed via baculovirus vector in SF21 cells and purified. Heterodimeric nucleic acid substrate used in the herpesvirus polymerase reactions was generated by annealing a 59-mer template to a 17-mer digoxigenin-labeled primer. Polymerase (HCMV final concentration of 0.2 nM; VZV final concentration of 0.4 nM) was combined with an inhibitor compound or DMSO in assay buffer (10 mM HEPES, pH 7.5, 25 mM KCl, 25 mM NaCl, 5 mM MgCl2, 5% glycerol, 0.67 mg/ml bovine serum albumin, and 1 mM tris(2-carboxyethyl)phosphine), and this mixture was pre-incubated for 30 minutes at room temperature in 384-well microtiter plates. The polymerization reaction was initiated by the addition of template/primer substrate (final concentration: 1.6 nM), and dNTPs (final concentration: 24 nM dCTP, 24 nMdGTP, 16 nM dATP, 16 nM dTTP, and 0.8 nM biotin-dUTP). After 60 min incubation at 37° C., reactions were terminated with quench buffer (25 mM HEPES pH 7.5, 100 mM NaCl, 0.25% Tween-20, 12 mM EDTA, and 1 mg/ml bovine serum albumin). Incorporation of biotinylated UTP was detected with 2.5-5 ug/ml anti-DIG AlphaLISA acceptor beads and 5-10 ug/ml streptavidin AlphaLISA donor beads (PerkinElmer). Compound effects were normalized to the window defined by the controls (DMSO only and pre-quenched wells) and were fit using a 4-parameter algorithm to report an IC50.

VZV = assay: Viral qPCR assay, VZV; assay type: cell-based, varicella zoster virus; conditions: MeWo or MRC5 cells, 0.04-0.1 pfu/cell, growth medium, viral genome copies by qPCR
Method: as §1, §2
VZV: Strain Street was maintained as an infected cell stock in MRC-5 cells. It was assayed in MeWo or MRC5 cells and was used at 0.04-0.1 pfu/cell. The assays were performed in growth medium. Primer-probe set was Thermo Fisher Assay ID=AIPAEXQ.

[2] = Human betaherpesvirus 5, AD169, MRC5, 72 h

SMILES | EC50 (HCMV Strain AD169; [2]) [nM] | EC50 (HSV-1 Strain F; Human alphaherpesvirus 1, 72 h) [nM] | IC50 ([1]; read-out: CMV (IC50)) [nM] | EC50 (VZV; Human alphaherpesvirus 3, 72 h) [nM] | EC50 (HCMV Strain AD169; ~72 hrs) [nM] | EC50 (HSV-1 Strain F; ~72 hrs) [nM] | EC50 (VZV; ~72 hrs) [nM] | IC50 ([1]; CMV (IC50)) [nM]
COc1nc(CC(C)(C)N)c(O[C@H]2CCN3C(=O)OC[C@@H]3C2)cc1C(=O)NCc1ccc(Cl)cc1 [Compound 81] | 558 | 2880 | 88.6 | 3650 |  |  |  | 
COc1nc(-c2ccoc2)c(O[C@H]2CCN3C(=O)OC[C@@H]3C2)cc1C(=O)NCc1ccc(Cl)cc1 [Compound 17] | 317 | 186 | 10.7 | 244 |  |  |  | 
NC(=O)CCOc1nc(-c2cnn(C(F)F)c2)c(O[C@H]2CCN3C(=O)OC[C@@H]3C2)cc1C(=O)NCc1ccc(Cl)cc1 [Compound 100] | 47.4 | 213 | 3.17 | 451 |  |  |  | 
COc1nc(N2CC3(CC(O)C3)C2)c(O[C@H]2CCN3C(=O)OC[C@@H]3C2)cc1C(=O)NCc1ccc(Cl)cc1 [Compound 66] | 146 | 262 | 5.23 | 648 |  |  |  | 
COc1nc(-c2cc(C(F)(F)F)nn2C)c(O[C@H]2CCN3C(=O)OC[C@@H]3C2)cc1C(=O)NCc1ccc(Cl)cc1 [Compound 48] | 2010 |  | 193 |  |  |  |  | 
COc1nccc(-c2nc(OC)c(C(=O)NCc3ccc(Cl)cc3)cc2O[C@H]2CCN3C(=O)OC[C@@H]3C2)n1 [Compound 53] | 3990 |  | 164 |  |  |  |  | 
COc1nc(-c2cc3ccccc3[nH]2)c(O[C@H]2CCN3C(=O)OC[C@@H]3C2)cc1C(=O)NCc1ccc(Cl)cc1 [Compound 26] | 372 | 174 | 5.8 | 208 |  |  |  | 
COc1nc(-c2cccs2)c(O[C@H]2CCN3C(=O)OC[C@@H]3C2)cc1C(=O)NCc1ccc(Cl)cc1 [Compound 12] | 313 | 187 | 9.27 | 235 |  |  |  | 
O=C1CC[C@@H](COc2nc(-c3cnn(C(F)F)c3)c(O[C@H]3CCN4C(=O)OC[C@@H]4C3)cc2C(=O)NCc2ccc(Cl)cc2)N1 [Compound 99] | 282 | 493 | 4.67 | 1310 |  |  |  | 
COc1nc(-c2occc2C=O)c(O[C@H]2CCN3C(=O)OC[C@@H]3C2)cc1C(=O)NCc1ccc(Cl)cc1 [Compound 23] | 140 | 87.4 | 18 | 117 |  |  |  | 
COc1nc(N2CC3(C(C)(C)O)CC2C3)c(O[C@H]2CCN3C(=O)OC[C@@H]3C2)cc1C(=O)NCc1ccc(Cl)cc1 [Compound 69] | 1480 |  | 53.9 |  |  |  |  | 
COc1nc(N2CCC(C(C)(C)O)C2)c(O[C@H]2CCN3C(=O)OC[C@@H]3C2)cc1C(=O)NCc1ccc(Cl)cc1 (stereo partly drawn) [Compound 68] |  |  | 28.7 |  | 265 | 654 | 661 | 
O=C(NCc1ccc(Cl)cc1)c1cc(O[C@H]2CCN3C(=O)OC[C@@H]3C2)c(-c2cnn(C(F)F)c2)nc1OCC1CC1(F)F (stereo partly drawn) [Compound 91] | 271 | 346 | 18.5 | 569 |  |  |  | 
COc1nc(-c2cc3cccc(OC)c3[nH]2)c(O[C@H]2CCN3C(=O)OC[C@@H]3C2)cc1C(=O)NCc1ccc(Cl)cc1 [Compound 54] | 5260 |  | 23.7 |  |  |  |  | 
COc1nc(-c2cc3nccnc3[nH]2)c(O[C@H]2CCN3C(=O)OC[C@@H]3C2)cc1C(=O)NCc1ccc(Cl)cc1 [Compound 27] | 556 | 648 | 33.6 | 859 |  |  |  | 
COc1nc(-c2ccc(C)s2)c(O[C@H]2CCN3C(=O)OC[C@@H]3C2)cc1C(=O)NCc1ccc(Cl)cc1 [Compound 14] | 1020 | 824 | 19.2 | 2570 |  |  |  | 
COc1nc(C2CC2O)c(O[C@H]2CCN3C(=O)OC[C@@H]3C2)cc1C(=O)NCc1ccc(Cl)cc1 (single isomer, unassigned) [Compound 77] |  |  |  |  | 872 |  |  | 31.5
COc1nc(-c2ccnc3[nH]ccc23)c(O[C@H]2CCN3C(=O)OC[C@@H]3C2)cc1C(=O)NCc1ccc(Cl)cc1 [Compound 51] | 3340 |  | 133 |  |  |  |  | 
COc1nc(C2CC2O)c(O[C@H]2CCN3C(=O)OC[C@@H]3C2)cc1C(=O)NCc1ccc(Cl)cc1 (single isomer, unassigned) [Compound 80] |  |  | 98.9 |  | 3210 |  |  | 
COc1nc(-c2ccc3cc[nH]c3c2)c(O[C@H]2CCN3C(=O)OC[C@@H]3C2)cc1C(=O)NCc1ccc(Cl)cc1 [Compound 50] | 2760 |  | 80.7 |  |  |  |  | 
COc1nc(-c2cccc3cc[nH]c23)c(O[C@H]2CCN3C(=O)OC[C@@H]3C2)cc1C(=O)NCc1ccc(Cl)cc1 [Compound 49] | 2740 |  | 131 |  |  |  |  | 
COc1ccc(-c2nc(OC)c(C(=O)NCc3ccc(Cl)cc3)cc2O[C@H]2CCN3C(=O)OC[C@@H]3C2)nc1 [Compound 35] | 1940 |  | 79.5 |  |  |  |  | 
COc1nc(-c2cc[nH]n2)c(O[C@H]2CCN3C(=O)OC[C@@H]3C2)cc1C(=O)NCc1ccc(Cl)cc1 [Compound 18] | 1200 |  | 19.6 |  |  |  |  | 
COc1nc(-c2ccccn2)c(O[C@H]2CCN3C(=O)OC[C@@H]3C2)cc1C(=O)NCc1ccc(Cl)cc1 [Compound 52] | 3480 |  | 120 |  |  |  |  | 
